Patent publication US10632125B2, “MTH1 inhibitors for treatment of inflammatory and autoimmune conditions” (THOMAS HELLEDAYS STIFTELSE FÖR MEDICINSK FORSKNING, priority 2014, dated 2020)
pIC50: −log10 of the molar value.

What follows are compounds tested against MTH1 (Homo sapiens, UniProt P36639) (assay: MTH1 enzymatic assay (malachite green, coupled to pyrophosphatase)). Conditions: dGTP 100 μM, MTH1 6 nM; 96- or 384-well format; read-out: IC50.
Type: biochemical
Procedure: MTH1 catalyzes the hydrolysis of dGTP to dGMP and PPi. By coupling the reaction to pyrophosphatase added in excess PPi is converted to Pi that can be detected by using the malachite green assay reagent. […] 96-well method: Briefly, the compound to be analyzed is diluted in DMSO in a 1:3 dilution series generating 12 different compound concentrations giving a final DMSO concentration of 1% in the assay well. MTH1 diluted in assay buffer (100 mM Tris-acetate, 40 mM NaCl, 10 mM magnesium acetate, 1 mM DTT and 0.005% Tween 20) fortified with E. coli pyrophosphatase (0.2 U/ml) is added to a final concentration of 6 nM. dGTP diluted in assay buffer is added to a final concentration of 100 μM. The reaction mixture is incubated for 15 minutes at 22° C. To 100 μl reaction mixture, 25 μl Malachite green assay regent (0.095% Malachite green in 17% H2SO4, 1.5% Ammonium molybdate, 0.17% Tween 20) is added, followed by incubation with shaking for 15 minutes at 22° C. The absorbance of the assay plate is read at 630 nm using a Hidex Sense Multilabel plate reader. The IC50 value is determined by fitting a dose response curve to the data points using nonlinear regression analysis and the equation Y=Bottom+(Top-Bottom)/(1+10^((Log IC50−X)*HillSlope)), where Y is the read absorbance at 630 nm and X is log [compound].
384-Well Method: The compounds to be tested are nano-dispensed, in 11 concentrations, directly in assay plates, with a final DMSO concentration <1%. The protocol and the reaction mixture are the same as for the 96-well assay, with a total reaction volume of 50 μl/well to which 10 μl of Malachite green reagent is added. All additions to the assay plates are made with multidrop.

pIC50, > 6.70:
CNc1cc(-c2ccc(OCc3ccccc3)cc2C)nc(N)n1 [Example 187, 6-[4-(benzyloxy)-2-methylphenyl]-4-N-methylpyrimidine-2,4-diamine]
CNc1cc(-c2cc(C)c(OC)cc2C)nc(N)n1 [Example 188, 6-(4-methoxy-2,5-dimethylphenyl)-4-N-methylpyrimidine-2,4-diamine]
CNc1cc(-c2cc(C)c(C)cc2C)nc(N)n1 [Example 189, 4-N-methyl-6-(2,4,5-trimethylphenyl)pyrimidine-2,4-diamine]
CNc1cc(-c2cc(Cl)ccc2C#N)nc(N)n1 [Example 190, 2-[2-amino-6-(methylamino)pyrimidin-4-yl]-4-chlorobenzonitrile]
CNc1cc(-c2cc(Cl)c(Cl)cc2C)nc(N)n1 [Example 191, 6-(4,5-dichloro-2-methylphenyl)-4-N-methylpyrimidine-2,4-diamine]
CNc1cc(-c2cc(C)c(F)cc2C)nc(N)n1 [Example 193, 6-(4-fluoro-2,5-dimethylphenyl)-4-N-methylpyrimidine-2,4-diamine]
CNc1cc(-c2cc(C(F)(F)F)ccc2C)nc(N)n1 [Example 194, 4-N-methyl-6-[2-methyl-5-(trifluoromethyl)phenyl]pyrimidine-2,4-diamine]
CNc1cc(-c2cc(Cl)c(C(F)(F)F)cc2C)nc(N)n1 [Example 195, 6-[5-chloro-2-methyl-4-(trifluoromethyl)phenyl]-4-N-methylpyrimidine-2,4-diamine]
CNc1cc(-c2cc(C(F)(F)F)ccc2C(F)(F)F)nc(N)n1 [Example 196, 6-[2,5-bis(trifluoromethyl)phenyl]-4-N-methylpyrimidine-2,4-diamine]
CNc1cc(-c2cc(C)ccc2F)nc(N)n1 [Example 200, 6-(2-fluoro-5-methylphenyl)-4-N-methylpyrimidine-2,4-diamine]
CNc1cc(-c2cc(C)ccc2OC)nc(N)n1 [Example 204, 6-(2-methoxy-5-methylphenyl)-4-N-methylpyrimidine-2,4-diamine]
CNc1cc(-c2cc(F)ccc2Cl)nc(N)n1 [Example 205, 6-(2-chloro-5-fluorophenyl)-4-N-methylpyrimidine-2,4-diamine]
CNc1cc(-c2cc(C#N)ccc2F)nc(N)n1 [Example 206, 3-[2-amino-6-(methylamino)pyrimidin-4-yl]-4-fluorobenzonitrile]
CNc1cc(-c2cc(OC)ccc2Cl)nc(N)n1 [Example 207, 6-(2-chloro-5-methoxyphenyl)-4-N-methylpyrimidine-2,4-diamine]
CNc1cc(-c2cc(Cl)c(C)cc2F)nc(N)n1 [Example 214, 6-(5-chloro-2-fluoro-4-methylphenyl)-4-N-methylpyrimidine-2,4-diamine]
Cc1cc(-c2cc(NC3CC3)nc(N)n2)c(C)cc1F [Example 216, 4-N-cyclopropyl-6-(4-fluoro-2,5-dimethylphenyl)pyrimidine-2,4-diamine]
COc1cc(C)c(-c2cc(NC3CC3)nc(N)n2)cc1C [Example 217, 4-N-cyclopropyl-6-(4-methoxy-2,5-dimethylphenyl)pyrimidine-2,4-diamine]
Cc1ccc(C)c(-c2cc(NC3CC3)nc(N)n2)c1 [Example 218, 4-N-cyclopropyl-6-(2,5-dimethylphenyl)pyrimidine-2,4-diamine]
CCNc1cc(-c2cc(Cl)ccc2C)nc(N)n1 [Example 221, 6-(5-chloro-2-methylphenyl)-4-N-ethylpyrimidine-2,4-diamine]
